How the values were obtained:
[1] = Stability of DMP433 dose formulations in vehicle; assay type: physicochemical; conditions: 0.5 and 50 mg/mL; 2 to 8° C. and 15 to 25° C., protected from light
Method: The vehicle control is 2.2 eq HCl 1.ON (˜40%)+28% as powder sulfobutylether-β-cyclodextrin (pH 2.0+0.5), with storage conditions in dispensary of 2 to 8° C. protected from light.
The test item formulation will be prepared daily, unless stability data supports less frequent preparation. The stability data will be generated under Labcorp Study Number 8528626. DMP433 formulations in vehicle at concentrations of 0.5 and 50 mg/mL have been confirmed as stable for up to 8 days at 2 to 8° C. and 15 to 25° C., both protected from light. The storage conditions in central dispensary will be 15 to 25° C. protected from light.
The formulation will be analysed (HPLC/UV analysis, Lapcorp method 8528626-01F, version in force on 22nd February 2024) to confirm that it achieves concentration and homogeneity. Samples (as shown in the following tables, where n/a means not applicable) will be taken from the main experiment during week 1 and week 4 and analysed accordingly.

[2] = Bioanalysis and toxicokinetic evaluation of DMP433 in mouse plasma and tissues; assay type: in vivo; conditions: 100 mg/kg/day, Day 14
Method: (§1) In a previously conducted range-finding study (Labcorp Study Number 8526660) DMP433 was dosed orally in groups of 6 males and 6 females at 500, 100 or 50 mg/kg/day daily for up to 14 days. […] Where clinical signs were seen, animals had recovered prior to dosing the following day. A single Day 1 (Subgroup 1) female satellite animal was removed from the study due to the severity of the clinical observations. […] Where clinical signs were seen, animals had recovered prior to dosing the following day. […] Therefore, dosing in males and females will be conducted.
The blood samples will be processed. Determination of DMP433 in mouse plasma containing K2EDTA as an anticoagulant will be conducted by Labcorp Bioanalytical in accordance with Labcorp Policies, and all procedures will be conducted following method DMP4MPP validated under Labcorp study number 8527178.
Toxicokinetic parameters will be estimated using Phoenix® WinNonlin® version 8.1 or higher (Certara USA, Inc., Princeton, New Jersey). A non-compartmental approach consistent with the oral route of administration will be used for parameter estimation. […]
For determination of mean DMP433 concentrations, concentration values that are below the limit of quantitation will be treated as zero. […]
Bioanalytical data will be used as received for the toxicokinetic analysis. Toxicokinetic parameters will be calculated. […]

[3] = system: lacZ transgene within the bone marrow, liver, kidney, and duodenum from treated Muta™ Mice; assay: Transgenic gene mutation assay in Muta™ Mice (lacZ); assay type: in vivo, Muta™ Mouse CD2-lacZ80/HazfBR; conditions: oral gavage, 28 consecutive days, sampling day 31
Description: A study is on-going, with the objective of evaluating the potential of DMP433 to induce gene mutations in the lacZ transgene within the bone marrow, liver, kidney, and duodenum from treated Muta™ Mice. The bone marrow and liver will be examined as these tissues are expected to be highly exposed to DMP433 upon oral gavage dosing and/or representative of organs with fast and slow dividing cells respectively. The duodenum will be assessed as a site of contact tissue following oral gavage dosing. The kidney will also be examined as a standard target organ for tumours for nitrosamines.
The animals used will be transgenic mouse of the strain Muta™ Mouse CD2-lacZ80/HazfBR (supplied by Charles River, UK). The animals will have an age range of approximately 8 to 12 weeks on the first day of dosing, and a weight range of approximately 18 to 35 g. […]
Based on the toxicity and bioanalytical data generated under Labcorp Study Number 8526660, the maximum tolerated dose level (MTD) of 100 mg/kg/day* will be used as the high dose level. […] As there is a crossover in exposure between males and females, vehicle controls and the MTD of 100 mg/kg/day only will be evaluated in females. • group 4 male animals given 80 mg/kg/day from Day 4 of dosing onwards due to mortality/morbidity. […]

Muta™ Mice = assay: Range-finding oral toxicity study of DMP433 (Labcorp Study Number 8526660); assay type: in vivo, mouse
Method: as §1
(§2) Based on the toxicity and bioanalytical data generated under Labcorp Study Number 8526660, the maximum tolerated dose level (MTD) of 100 mg/kg/day* will be used as the high dose level. Two further doses of 50 and 25 mg/kg/day, will also be tested in males (OECD, 2022). As there is a crossover in exposure between males and females, vehicle controls and the MTD of 100 mg/kg/day only will be evaluated in females. • group 4 male animals given 80 mg/kg/day from Day 4 of dosing onwards due to mortality/morbidity.

[4] = as above; assay type: in vivo, mouse; conditions: both sexes, Muta™ Mouse, mouse, in vivo; oral, daily; read-out: maximum tolerated dose level (MTD)
Method: as §1, §2

Question: Which results are given for CN(C)C(=O)c1cc2cnc(Nc3ccc(N4CCN(N=O)CC4)cn3)nc2n1C1CCCC1 [DMP433, 7-cyclopentyl-N,N-dimethyl-2-((5-(4-nitrosopiperazin-1-yl)pyridin-2-yl)amino)-7H-pyrrolo[2,3-d]pyrimidine-6-carboxamide]?
Answer: time for which DMP433 formulations in vehicle are stable [1]: up to 8 days; sex difference in bioanalytical data [2]: approximately 2 fold; result of the gene mutation assay (capable of inducing mutation) [3]: positive; bodyweight, Range-Finder 3 (Muta™ Mice; 50 mg/kg/day oral, 14 days): all animals except one (male M5209) had gained bodyweight; clinical signs, Range-Finder 3 (Muta™ Mice; 50 mg/kg/day oral, up to 14 days, Subgroup 2 animals): squinting, mild decreased activity and piloerection; bodyweight, Range-Finder 2 (Muta™ Mice; 100 mg/kg/day oral, 14 days): all animals gained bodyweight during the 14-day dosing period; clinical signs, Range-Finder 2 (Muta™ Mice; 100 mg/kg/day oral, up to 14 days, Subgroup 2 animals): squinting, partially closed eyes, fast respiration, mild hunched posture and piloerection; outcome of Range-Finder 1 (Muta™ Mice; 500 mg/kg/day oral, 6 males and 6 females): terminated on day 1 due to animal mortality/morbidity and convulsions; MTD [4]: 100 mg/kg/day

Reference: patent US20250319032A1, “PHARMACEUTICAL COMPOSITIONS OF RIBOCICLIB” (Novartis AG, priority 2024, published 2025)
